Source: US8729081B2, “Compositions and methods for treating alcohol use disorders, pain and other diseases” (VM Discovery Inc., priority 2008, dated 2014)

Legend:
Assay in all cases: Kinase profiling
Format in all cases: biochemical
Akt1 = target: T1, Akt1 (Homo sapiens, UniProt P31749)
T1 construct: purchased Reaction Biology Corp
Method: [The procedure below names another target; the source lists this target under the same test.] (§1) Kinase profiling was performed using HotSpot technology (Reaction Biology Corp. 11 Malvern, Pa., USA). This technology is a radioisotope-based P81 filter-binding assay. Compound of the present invention were dissolved in pure DMSO to make a 10 mM stock, then diluted in pure DMSO to make a serial dilution based on the IC50 ranges. PKCε (h) (0.4 nM, human recombinant protein expressed in insect cells. Mw=83.7 kDa) and substrate (20 μM peptide substrate, [RFARKGSLRQKNV]) were diluted in the reaction buffer (20 mM HEPES-HCl, pH 7.5, 10 mM MgCl2, 1 mM EGTA, 0.02% Brij35, 0.1 mM Na3VO4, 0.02 mg/ml BSA, 2 mM DTT, and 1% DMSO), and then 5 nL of compound was delivered into PKCε (h) and substrate mixture by acoustic technology using Echo 550 (LabCyte Inc., Sunnyvale, Calif.). The reaction was initiated by the addition of [γ-33P-ATP] into the reaction mixture (final concentration was 10 μM) and stopped after at least 40 min incubation at room temperature. The unreacted free 33P-ATP was washed away before detection.

CAMKIIa_alpha = target: T2, CAMKIIa_alpha (Homo sapiens, UniProt Q9UQM7)
T2 construct: purchased Reaction Biology Corp
Method: [The procedure below names another target; the source lists this target under the same test.] as §1

CDK1/cyclinB = target: T3, CDK1/cyclinB (Homo sapiens, UniProt P06493)
T3 construct: purchased Reaction Biology Corp
Method: [The procedure below names another target; the source lists this target under the same test.] as §1

FYN = target: T4, FYN (Homo sapiens, UniProt P06241)
T4 construct: purchased Reaction Biology Corp
T4 sequence (P06241 whole entry): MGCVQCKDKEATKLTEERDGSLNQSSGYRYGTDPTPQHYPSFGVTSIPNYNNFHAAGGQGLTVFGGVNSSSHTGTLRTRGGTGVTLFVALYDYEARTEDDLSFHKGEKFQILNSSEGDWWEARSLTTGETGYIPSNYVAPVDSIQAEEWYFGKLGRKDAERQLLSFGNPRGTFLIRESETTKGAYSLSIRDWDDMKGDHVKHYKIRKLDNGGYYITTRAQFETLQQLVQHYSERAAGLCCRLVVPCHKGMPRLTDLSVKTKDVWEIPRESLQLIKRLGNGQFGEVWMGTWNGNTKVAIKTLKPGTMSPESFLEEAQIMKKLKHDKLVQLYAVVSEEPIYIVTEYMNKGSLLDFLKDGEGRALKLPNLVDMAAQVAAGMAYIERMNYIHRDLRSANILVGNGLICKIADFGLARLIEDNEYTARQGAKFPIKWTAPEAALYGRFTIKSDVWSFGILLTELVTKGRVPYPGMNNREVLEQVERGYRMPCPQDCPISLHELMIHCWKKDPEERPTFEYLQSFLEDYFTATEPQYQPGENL
Method: [The procedure below names another target; the source lists this target under the same test.] as §1

MEK1 = target: T5, MEK1 (Homo sapiens, UniProt Q02750)
T5 construct: purchased Reaction Biology Corp
T5 sequence (Q02750 whole entry): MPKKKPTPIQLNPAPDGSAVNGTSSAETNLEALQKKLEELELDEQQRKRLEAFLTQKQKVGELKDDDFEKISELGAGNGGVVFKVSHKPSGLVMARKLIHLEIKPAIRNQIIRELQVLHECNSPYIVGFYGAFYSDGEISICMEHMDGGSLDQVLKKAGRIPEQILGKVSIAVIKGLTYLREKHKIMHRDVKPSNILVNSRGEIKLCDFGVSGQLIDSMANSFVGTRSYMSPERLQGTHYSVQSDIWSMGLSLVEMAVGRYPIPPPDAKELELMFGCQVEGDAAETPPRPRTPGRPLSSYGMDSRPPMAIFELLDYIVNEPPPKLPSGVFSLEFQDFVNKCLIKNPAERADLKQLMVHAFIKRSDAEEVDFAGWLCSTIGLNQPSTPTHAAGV
Method: [The procedure below names another target; the source lists this target under the same test.] as §1

PDPK1 = target: T6, PDPK1 (Homo sapiens, UniProt O15530)
T6 construct: purchased Reaction Biology Corp
Method: [The procedure below names another target; the source lists this target under the same test.] as §1

PKA = target: T7, PKA (Homo sapiens, UniProt P17612)
T7 construct: purchased Reaction Biology Corp
Method: [The procedure below names another target; the source lists this target under the same test.] as §1

PKCalpha = target: T8, PKCalpha (Homo sapiens, UniProt P17252)
T8 construct: purchased Reaction Biology Corp
Method: [The procedure below names another target; the source lists this target under the same test.] as §1

PKCbeta1 = target: T9, PKCbeta1 (Homo sapiens, UniProt P05771)
T9 construct: purchased Reaction Biology Corp
Method: [The procedure below names another target; the source lists this target under the same test.] as §1

PKCbeta2 = target: T10, PKCbeta2 (Homo sapiens, UniProt P05771)
T10 construct: purchased Reaction Biology Corp
T10 sequence (P05771 1-673 isoform P05771-2): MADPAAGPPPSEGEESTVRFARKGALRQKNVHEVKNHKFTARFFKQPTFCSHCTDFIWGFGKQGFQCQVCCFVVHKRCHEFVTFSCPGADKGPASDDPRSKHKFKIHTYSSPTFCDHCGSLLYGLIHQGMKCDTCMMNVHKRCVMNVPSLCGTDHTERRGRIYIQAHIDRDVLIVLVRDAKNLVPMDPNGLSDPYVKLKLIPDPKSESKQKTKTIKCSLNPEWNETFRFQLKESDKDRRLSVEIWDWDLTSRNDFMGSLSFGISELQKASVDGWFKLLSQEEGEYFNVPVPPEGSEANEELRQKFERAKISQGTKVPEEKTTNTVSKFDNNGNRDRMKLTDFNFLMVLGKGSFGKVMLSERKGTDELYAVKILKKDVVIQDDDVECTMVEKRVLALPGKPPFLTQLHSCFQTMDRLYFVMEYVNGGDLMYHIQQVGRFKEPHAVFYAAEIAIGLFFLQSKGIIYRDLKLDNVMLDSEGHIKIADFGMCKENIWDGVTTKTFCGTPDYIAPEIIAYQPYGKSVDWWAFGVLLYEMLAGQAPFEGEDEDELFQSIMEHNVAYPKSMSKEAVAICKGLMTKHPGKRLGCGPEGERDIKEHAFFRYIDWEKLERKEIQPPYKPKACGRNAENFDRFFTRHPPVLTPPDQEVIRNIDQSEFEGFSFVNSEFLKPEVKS
Method: [The procedure below names another target; the source lists this target under the same test.] as §1

PKCdelta = target: T11, PKCdelta (Homo sapiens, UniProt Q05655)
T11 construct: purchased Reaction Biology Corp
Method: [The procedure below names another target; the source lists this target under the same test.] as §1

PKCeta = target: T12, PKCeta (Homo sapiens, UniProt P24723)
T12 construct: purchased Reaction Biology Corp
T12 sequence (P24723 whole entry): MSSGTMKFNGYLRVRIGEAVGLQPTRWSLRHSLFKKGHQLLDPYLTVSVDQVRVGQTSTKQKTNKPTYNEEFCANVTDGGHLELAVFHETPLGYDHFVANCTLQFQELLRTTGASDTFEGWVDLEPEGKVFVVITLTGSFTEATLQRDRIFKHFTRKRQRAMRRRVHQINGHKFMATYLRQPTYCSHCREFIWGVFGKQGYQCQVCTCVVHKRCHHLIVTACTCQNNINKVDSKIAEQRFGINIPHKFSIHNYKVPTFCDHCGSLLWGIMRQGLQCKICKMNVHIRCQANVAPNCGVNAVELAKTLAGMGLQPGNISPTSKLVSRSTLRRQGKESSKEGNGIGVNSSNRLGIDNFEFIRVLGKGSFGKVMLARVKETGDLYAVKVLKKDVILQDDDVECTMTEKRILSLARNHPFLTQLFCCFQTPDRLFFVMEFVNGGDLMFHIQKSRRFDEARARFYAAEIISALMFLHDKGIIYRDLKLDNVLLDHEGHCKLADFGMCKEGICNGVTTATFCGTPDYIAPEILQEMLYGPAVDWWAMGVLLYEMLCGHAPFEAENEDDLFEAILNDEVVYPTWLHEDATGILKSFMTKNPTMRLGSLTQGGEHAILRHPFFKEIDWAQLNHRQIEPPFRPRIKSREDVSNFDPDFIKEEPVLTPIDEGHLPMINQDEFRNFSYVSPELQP
Method: [The procedure below names another target; the source lists this target under the same test.] as §1

PKCgamma = target: T13, PKCgamma (Homo sapiens, UniProt P05129)
T13 construct: purchased Reaction Biology Corp
Method: [The procedure below names another target; the source lists this target under the same test.] as §1

PKCiota = target: T14, PKCiota (Homo sapiens, UniProt P41743)
T14 construct: purchased Reaction Biology Corp
Method: [The procedure below names another target; the source lists this target under the same test.] as §1

PKCmu = target: T15, PKCmu (Homo sapiens, UniProt Q15139)
T15 construct: purchased Reaction Biology Corp
Method: [The procedure below names another target; the source lists this target under the same test.] as §1

PKCtheta = target: T16, PKCtheta (Homo sapiens, UniProt Q04759)
T16 construct: purchased Reaction Biology Corp
Method: [The procedure below names another target; the source lists this target under the same test.] as §1

PKCzeta = target: T17, PKCzeta (Homo sapiens, UniProt Q05513)
T17 construct: purchased Reaction Biology Corp
T17 sequence (Q05513 whole entry): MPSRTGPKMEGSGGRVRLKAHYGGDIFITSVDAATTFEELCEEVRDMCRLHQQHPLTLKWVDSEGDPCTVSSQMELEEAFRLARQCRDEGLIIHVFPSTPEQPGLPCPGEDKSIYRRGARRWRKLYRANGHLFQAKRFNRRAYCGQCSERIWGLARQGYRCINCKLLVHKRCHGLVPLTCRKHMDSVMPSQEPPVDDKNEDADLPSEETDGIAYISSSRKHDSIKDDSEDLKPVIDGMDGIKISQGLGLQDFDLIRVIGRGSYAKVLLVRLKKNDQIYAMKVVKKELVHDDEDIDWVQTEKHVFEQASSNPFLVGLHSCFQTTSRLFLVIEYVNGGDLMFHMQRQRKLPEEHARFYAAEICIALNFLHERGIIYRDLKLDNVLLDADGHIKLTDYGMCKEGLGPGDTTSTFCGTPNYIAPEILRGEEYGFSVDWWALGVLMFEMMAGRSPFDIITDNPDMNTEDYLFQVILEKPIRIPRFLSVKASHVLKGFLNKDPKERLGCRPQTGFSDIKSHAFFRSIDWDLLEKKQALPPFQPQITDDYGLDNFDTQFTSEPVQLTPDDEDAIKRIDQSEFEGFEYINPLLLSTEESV
Method: [The procedure below names another target; the source lists this target under the same test.] as §1

ROCK1 = target: T18, ROCK1 (Homo sapiens, UniProt Q13464)
T18 construct: purchased Reaction Biology Corp
Method: [The procedure below names another target; the source lists this target under the same test.] as §1

RSK1 = target: T19, RSK1 (Homo sapiens, UniProt Q15418)
T19 construct: purchased Reaction Biology Corp
T19 sequence (Q15418 whole entry): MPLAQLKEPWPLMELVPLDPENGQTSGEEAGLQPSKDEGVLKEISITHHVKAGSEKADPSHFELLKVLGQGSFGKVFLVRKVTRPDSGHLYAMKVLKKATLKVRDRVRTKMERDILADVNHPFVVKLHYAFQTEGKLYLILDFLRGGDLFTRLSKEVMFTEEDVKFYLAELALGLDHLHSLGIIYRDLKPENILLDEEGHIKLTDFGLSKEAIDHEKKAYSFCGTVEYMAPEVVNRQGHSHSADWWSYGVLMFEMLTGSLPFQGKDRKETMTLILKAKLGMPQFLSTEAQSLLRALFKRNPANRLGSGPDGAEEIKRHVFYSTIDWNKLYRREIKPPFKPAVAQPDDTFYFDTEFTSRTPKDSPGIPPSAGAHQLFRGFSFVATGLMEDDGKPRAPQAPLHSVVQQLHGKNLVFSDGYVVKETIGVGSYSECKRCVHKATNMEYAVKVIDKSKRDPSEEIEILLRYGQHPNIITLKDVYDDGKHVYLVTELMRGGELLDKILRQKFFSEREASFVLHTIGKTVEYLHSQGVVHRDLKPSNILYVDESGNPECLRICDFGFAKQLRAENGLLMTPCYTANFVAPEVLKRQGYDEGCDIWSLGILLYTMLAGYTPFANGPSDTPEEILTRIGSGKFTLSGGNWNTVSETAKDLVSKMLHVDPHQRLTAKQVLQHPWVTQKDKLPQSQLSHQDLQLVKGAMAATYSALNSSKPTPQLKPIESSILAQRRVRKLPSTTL
Method: [The procedure below names another target; the source lists this target under the same test.] as §1

TrkA = target: T20, TrkA (Homo sapiens, UniProt P04629)
T20 construct: purchased Reaction Biology Corp
T20 sequence (P04629 33-796): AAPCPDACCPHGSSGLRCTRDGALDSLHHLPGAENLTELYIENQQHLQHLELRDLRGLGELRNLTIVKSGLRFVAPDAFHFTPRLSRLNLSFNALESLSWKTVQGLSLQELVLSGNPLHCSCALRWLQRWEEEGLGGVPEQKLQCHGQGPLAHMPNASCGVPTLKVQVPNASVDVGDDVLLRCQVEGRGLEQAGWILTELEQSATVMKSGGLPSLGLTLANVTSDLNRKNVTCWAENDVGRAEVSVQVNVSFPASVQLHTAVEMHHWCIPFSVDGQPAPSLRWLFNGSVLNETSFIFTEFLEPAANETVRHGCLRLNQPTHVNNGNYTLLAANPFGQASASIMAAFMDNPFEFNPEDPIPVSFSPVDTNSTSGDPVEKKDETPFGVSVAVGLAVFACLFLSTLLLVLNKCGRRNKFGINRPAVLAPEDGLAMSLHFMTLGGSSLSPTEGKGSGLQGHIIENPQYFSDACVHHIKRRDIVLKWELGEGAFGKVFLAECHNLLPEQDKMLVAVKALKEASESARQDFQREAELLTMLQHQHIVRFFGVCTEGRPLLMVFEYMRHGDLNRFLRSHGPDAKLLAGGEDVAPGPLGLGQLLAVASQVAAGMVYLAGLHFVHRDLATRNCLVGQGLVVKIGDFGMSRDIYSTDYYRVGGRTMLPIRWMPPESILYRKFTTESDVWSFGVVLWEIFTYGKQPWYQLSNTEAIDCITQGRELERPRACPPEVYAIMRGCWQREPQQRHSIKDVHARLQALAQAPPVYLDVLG
Method: [The procedure below names another target; the source lists this target under the same test.] as §1

cMET = target: T21, cMET (Homo sapiens, UniProt P08581)
T21 construct: purchased Reaction Biology Corp
Method: [The procedure below names another target; the source lists this target under the same test.] as §1

Measured: IC50

T1 sequence (P31749 whole entry): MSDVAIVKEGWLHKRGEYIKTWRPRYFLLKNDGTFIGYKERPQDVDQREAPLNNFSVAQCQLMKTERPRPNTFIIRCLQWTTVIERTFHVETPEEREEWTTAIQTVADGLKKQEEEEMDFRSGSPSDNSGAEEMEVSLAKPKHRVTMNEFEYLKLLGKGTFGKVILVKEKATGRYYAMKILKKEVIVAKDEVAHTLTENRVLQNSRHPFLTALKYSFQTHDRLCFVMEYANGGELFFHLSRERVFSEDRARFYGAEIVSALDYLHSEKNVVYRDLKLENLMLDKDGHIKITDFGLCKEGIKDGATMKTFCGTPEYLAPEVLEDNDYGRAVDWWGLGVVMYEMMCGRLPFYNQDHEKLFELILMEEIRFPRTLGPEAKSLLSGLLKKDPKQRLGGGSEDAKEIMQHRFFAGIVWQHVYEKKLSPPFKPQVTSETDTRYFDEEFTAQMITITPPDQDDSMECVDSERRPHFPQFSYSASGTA

O=C(NCCCN1CCCC1)c1ccc(/C=C2\Sc3ccccc3N(Cc3ccccc3F)C2=O)cc1 [Compound 481, 4-{(Z/E)-[4-(2-fluorobenzyl)-3-oxo-3,4-dihydro-2H-1,4-benzothiazin-2-ylidene]methyl}-N-[3-(pyrrolidin-1-yl)propyl]benzamide]
> 20 µM: all assays above
